± gives the expanded uncertainty stated by the source.
Experiments:
[1] = xn = mol fraction of the nth substance listed; settings: 101.33 kPa, Liquid; for viscosity: Capillary tube (Ostwald / Ubbelohde) method
[2] = excess molar enthalpy (molar enthalpy of mixing); xn = mol fraction of the nth substance listed; settings: 298.15 K, 101.33 kPa, Liquid, Flow calorimetry
[3] = molar heat capacity at constant pressure; xn = mol fraction of the nth substance listed; settings: 101.33 kPa, Liquid, Vacuum adiabatic calorimetry

COP(=O)([O-])OC.Cn1cc[n+](C)c1 [1,3-dimethylimidazolium dimethylphosphate] + CCO
Settings	molar heat capacity at constant pressure, 298.15 K [J/K/mol]	molar heat capacity at constant pressure, 303.15 K [J/K/mol]	molar heat capacity at constant pressure, 313.15 K [J/K/mol]	molar heat capacity at constant pressure, 323.15 K [J/K/mol]	viscosity, 298.15 K [mPa·s]	viscosity, 303.15 K [mPa·s]	viscosity, 308.15 K [mPa·s]	viscosity, 313.15 K [mPa·s]	viscosity, 318.15 K [mPa·s]	viscosity, 323.15 K [mPa·s]
[1], x1 = 0.202	–	–	–	–	6.83 ± 0.76	5.98 ± 0.75	5.3 ± 0.75	4.83 ± 0.75	4.32 ± 0.74	3.94 ± 0.74
[1], x1 = 0.414	–	–	–	–	22.99 ± 0.81	19 ± 0.77	16.21 ± 0.76	14.15 ± 0.75	12.35 ± 0.75	11.03 ± 0.75
[1], x1 = 0.562	–	–	–	–	48.76 ± 1.1	38.45 ± 0.91	30.8 ± 0.84	26.47 ± 0.8	22.23 ± 0.78	19.27 ± 0.76
[1], x1 = 0.807	–	–	–	–	137.88 ± 2.8	105.91 ± 1.7	80.22 ± 1.2	63.76 ± 0.93	50.57 ± 0.83	42.11 ± 0.8
[1], x1 = 1	–	–	–	–	271.86 ± 8	188.3 ± 4.5	139.49 ± 2.6	110.25 ± 1.7	84.44 ± 1.1	69.99 ± 0.89
[3], x1 = 0.224	145.29 ± 5.1	153.59 ± 5.1	172.15 ± 5.1	190.19 ± 5.1	–	–	–	–	–	–
[3], x1 = 0.408	193.74 ± 7.1	205.3 ± 7.1	227.82 ± 7.1	247.28 ± 7.1	–	–	–	–	–	–
[3], x1 = 0.596	235.91 ± 9.1	247.99 ± 9.1	280.92 ± 9.1	299.34 ± 9.1	–	–	–	–	–	–
[3], x1 = 0.803	258.54 ± 11	267.73 ± 11	289.85 ± 11	304.85 ± 11	–	–	–	–	–	–
[3], x1 = 1	282.83 ± 13	296.61 ± 13	310.83 ± 13	321.05 ± 13	–	–	–	–	–	–

mass density [kg/m3], [1], Specific gravity balance
Settings	298.15 K	303.15 K	308.15 K	313.15 K	318.15 K	323.15 K
x1 = 0.202	1000.6 ± 1.6	996.6 ± 1.6	992.7 ± 1.6	989.7 ± 1.6	986.9 ± 1.6	983.2 ± 1.6
x1 = 0.414	1116.5 ± 1.5	1113.4 ± 1.5	1109.8 ± 1.5	1106.6 ± 1.5	1103.5 ± 1.5	1098.4 ± 1.6
x1 = 0.562	1166.7 ± 1.3	1163.4 ± 1.3	1159.7 ± 1.3	1156.2 ± 1.3	1152.4 ± 1.3	1148.5 ± 1.3
x1 = 0.807	1223.2 ± 1.3	1219.5 ± 1.3	1216.8 ± 1.3	1213.8 ± 1.3	1211.4 ± 1.3	1207.5 ± 1.3
x1 = 1	1258.7 ± 1.2	1255.9 ± 1.2	1253 ± 1.2	1249.1 ± 1.2	1245.2 ± 1.2	1241.5 ± 1.2

[2]
Settings	excess molar enthalpy [kcal/mol]
x1 = 0.177	-0.329 ± 0.00956
x1 = 0.307	-0.481 ± 0.00932
x1 = 0.524	-0.485 ± 0.00932
x1 = 0.665	-0.377 ± 0.00932
x1 = 0.8	-0.241 ± 0.00908
x1 = 1	0 ± 0.0086

COP(=O)([O-])OC.Cn1cc[n+](C)c1 [1,3-dimethylimidazolium dimethylphosphate] + CO
Settings	molar heat capacity at constant pressure, 298.15 K [J/K/mol]	molar heat capacity at constant pressure, 303.15 K [J/K/mol]	molar heat capacity at constant pressure, 313.15 K [J/K/mol]	molar heat capacity at constant pressure, 323.15 K [J/K/mol]	viscosity, 298.15 K [mPa·s]	viscosity, 303.15 K [mPa·s]	viscosity, 308.15 K [mPa·s]	viscosity, 313.15 K [mPa·s]	viscosity, 318.15 K [mPa·s]	viscosity, 323.15 K [mPa·s]
[1], x1 = 0.203	–	–	–	–	3.8 ± 0.3	3.32 ± 0.29	3.06 ± 0.28	2.84 ± 0.27	2.6 ± 0.27	2.4 ± 0.27
[1], x1 = 0.399	–	–	–	–	18.33 ± 0.41	16.56 ± 0.33	12.43 ± 0.31	11.08 ± 0.29	9.76 ± 0.29	8.79 ± 0.28
[1], x1 = 0.603	–	–	–	–	53.9 ± 0.99	38.18 ± 0.56	31.37 ± 0.45	25.8 ± 0.39	22.86 ± 0.35	18.45 ± 0.32
[1], x1 = 0.805	–	–	–	–	145.63 ± 3.1	98.68 ± 1.6	75.4 ± 0.88	61.57 ± 0.62	49.9 ± 0.51	40.2 ± 0.43
[1], x1 = 1	–	–	–	–	271.86 ± 8	188.3 ± 4.5	139.49 ± 2.6	110.25 ± 1.6	84.44 ± 0.88	69.99 ± 0.56
[3], x1 = 0.202	130.82 ± 4.2	144.77 ± 4.2	169.01 ± 4.2	190.07 ± 4.2	–	–	–	–	–	–
[3], x1 = 0.399	177.61 ± 6.5	191.43 ± 6.5	214.09 ± 6.5	233.4 ± 6.5	–	–	–	–	–	–
[3], x1 = 0.591	215.46 ± 8.7	225.28 ± 8.7	246.8 ± 8.7	262.54 ± 8.7	–	–	–	–	–	–
[3], x1 = 0.81	256.75 ± 11	261.78 ± 11	274.8 ± 11	290.24 ± 11	–	–	–	–	–	–
[3], x1 = 1	282.83 ± 13	296.61 ± 13	310.83 ± 13	321.05 ± 13	–	–	–	–	–	–

mass density [kg/m3], [1], Specific gravity balance
Settings	298.15 K	303.15 K	308.15 K	313.15 K	318.15 K	323.15 K
x1 = 0.203	1040.2 ± 1.5	1037.1 ± 1.5	1033.2 ± 1.5	1030.2 ± 1.5	1027.6 ± 1.5	1025.1 ± 1.4
x1 = 0.399	1158.3 ± 1.2	1155.2 ± 1.2	1151.2 ± 1.2	1148.1 ± 1.2	1147 ± 1.2	1140.1 ± 1.3
x1 = 0.603	1205.5 ± 0.9	1201.4 ± 0.9	1197.8 ± 0.9	1194.1 ± 0.9	1190.8 ± 0.9	1188 ± 0.9
x1 = 0.805	1236.4 ± 0.8	1233 ± 0.9	1229.7 ± 0.9	1226.4 ± 0.9	1223.1 ± 0.9	1219.8 ± 0.9
x1 = 1	1258.7 ± 0.8	1255.9 ± 0.8	1253 ± 0.8	1249.1 ± 0.8	1245.2 ± 0.8	1241.5 ± 0.8

[2]
Settings	excess molar enthalpy [kcal/mol]
x1 = 0.165	-0.539 ± 0.0086
x1 = 0.28	-0.779 ± 0.00789
x1 = 0.466	-0.783 ± 0.00789
x1 = 0.593	-0.687 ± 0.00765
x1 = 0.744	-0.475 ± 0.00717
x1 = 1	0 ± 0.00526

COP(=O)([O-])OC.Cn1cc[n+](C)c1 [1,3-dimethylimidazolium dimethylphosphate] + O
Settings	molar heat capacity at constant pressure, 298.15 K [J/K/mol]	molar heat capacity at constant pressure, 303.15 K [J/K/mol]	molar heat capacity at constant pressure, 313.15 K [J/K/mol]	molar heat capacity at constant pressure, 323.15 K [J/K/mol]	viscosity, 298.15 K [mPa·s]	viscosity, 303.15 K [mPa·s]	viscosity, 308.15 K [mPa·s]	viscosity, 313.15 K [mPa·s]	viscosity, 318.15 K [mPa·s]	viscosity, 323.15 K [mPa·s]
[1], x1 = 0.252	–	–	–	–	40.02 ± 0.55	32.61 ± 0.46	24.46 ± 0.41	20.28 ± 0.38	16.97 ± 0.35	14.5 ± 0.35
[1], x1 = 0.428	–	–	–	–	74.43 ± 1	55.22 ± 0.63	43.51 ± 0.52	35.23 ± 0.46	27.92 ± 0.41	23.63 ± 0.37
[1], x1 = 0.617	–	–	–	–	145.21 ± 2.8	110.23 ± 1.7	82.04 ± 0.91	66.13 ± 0.59	51.66 ± 0.45	41.92 ± 0.47
[1], x1 = 0.795	–	–	–	–	197.92 ± 4.9	138.81 ± 2.6	104.59 ± 1.5	80.27 ± 0.84	63.01 ± 0.54	50.35 ± 0.41
[1], x1 = 1	–	–	–	–	271.86 ± 8	188.3 ± 4.5	139.49 ± 2.6	110.25 ± 1.6	84.44 ± 0.88	69.99 ± 0.59
[3], x1 = 0.21	116.48 ± 3.7	124.21 ± 3.7	147.96 ± 3.7	171.34 ± 3.7	–	–	–	–	–	–
[3], x1 = 0.375	143.19 ± 5.7	151.23 ± 5.7	167.21 ± 5.7	182.63 ± 5.8	–	–	–	–	–	–
[3], x1 = 0.57	197.42 ± 8.1	205.75 ± 8.1	220.8 ± 8.1	232.9 ± 8.1	–	–	–	–	–	–
[3], x1 = 0.821	255.8 ± 11	267.68 ± 11	284.76 ± 11	298.31 ± 11	–	–	–	–	–	–
[3], x1 = 1	282.83 ± 13	296.61 ± 13	310.83 ± 13	321.05 ± 13	–	–	–	–	–	–

mass density [kg/m3], [1], Speicific gravity balance
Settings	298.15 K	303.15 K	308.15 K	313.15 K	318.15 K	323.15 K
x1 = 0.252	1233.4 ± 1.2	1231 ± 1.2	1227.9 ± 1.2	1224 ± 1.2	1220.8 ± 1.2	1216.8 ± 1.2
x1 = 0.428	1241.5 ± 1.2	1239.4 ± 1.2	1236.2 ± 1.2	1233.6 ± 1.2	1230.5 ± 1.2	1226.2 ± 1.2
x1 = 0.617	1248.5 ± 1.2	1245.8 ± 1.2	1241.8 ± 1.2	1239.3 ± 1.2	1236.1 ± 1.2	1232.9 ± 1.2
x1 = 0.795	1253.6 ± 1.2	1250.5 ± 1.2	1247.2 ± 1.2	1243.9 ± 1.2	1241.1 ± 1.2	1236.8 ± 1.2
x1 = 1	1258.7 ± 1.2	1255.9 ± 1.2	1253 ± 1.2	1249.1 ± 1.2	1245.2 ± 1.2	1241.5 ± 1.2

[2]
Settings	excess molar enthalpy [kcal/mol]
x1 = 0.104	-1.12 ± 0.0574
x1 = 0.209	-1.42 ± 0.055
x1 = 0.369	-1.54 ± 0.055
x1 = 0.498	-1.45 ± 0.055
x1 = 0.604	-1.28 ± 0.055
x1 = 1	0 ± 0.055

Reference: the NIST ThermoML archive (doi:10.1016/j.fluid.2010.07.005)
